Results on 28 molecules are retold here after patent publication US20040067915A1, “Method to treat cardiofibrosis with a combination of an angiotensin II antagonist and spironolactone” (G.D. Searle & Co., priority 1995, published 2004).

SMILES strings stand for the structures.

One assay deals with T1, angiotensin II receptor (rabbit aortic rings) (Oryctolagus cuniculus, UniProt P34976).
T1 construct: The thoracic aorta was removed, cleaned of adherent fat and connective tissue and then cut into 3-mm ring segments; from tissue; host or cells: rabbit thoracic aorta rings, endothelium removed
T1 sequence (P34976 1-359): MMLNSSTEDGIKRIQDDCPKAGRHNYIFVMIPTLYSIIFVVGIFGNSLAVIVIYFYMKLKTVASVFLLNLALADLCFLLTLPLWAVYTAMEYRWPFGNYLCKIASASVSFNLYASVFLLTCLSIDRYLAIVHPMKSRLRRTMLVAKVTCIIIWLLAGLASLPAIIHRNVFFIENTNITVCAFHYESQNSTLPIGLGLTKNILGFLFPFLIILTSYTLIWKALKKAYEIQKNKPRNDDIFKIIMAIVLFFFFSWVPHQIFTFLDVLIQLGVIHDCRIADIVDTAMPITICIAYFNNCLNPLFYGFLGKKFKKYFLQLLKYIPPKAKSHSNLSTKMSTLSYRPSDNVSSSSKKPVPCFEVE
Put plainly: Assay B: In vitro Vascular Smooth Muscle Response for AII (rabbit aortic rings, pA2). In kind it is cell-based. Details: key to Assay B pA2 (NC = Non-Competitive antagonist): NC=Non-Competitive antagonist.
Details: not given
How it is done:
Assay B: In vitro Vascular Smooth Muscle-response for AII
The compounds of the invention were tested for antagonist activity in rabbit aortic rings. Male New Zealand white rabbits (2-2.5 kg) were sacrificed using an overdose of pentobarbital and exsanguinated via the carotid arteries. The thoracic aorta was removed, cleaned of adherent fat and connective tissue and then cut into 3-mm ring segments. The endothelium was removed from the rings by gently sliding a rolled-up piece of filter paper into the vessel lumen. The rings were then mounted in a water-jacketed tissue bath, maintained at 37° C., between moveable and fixed ends of a stainless steel wire with the moveable end attached to an FT03 Grass transducer coupled to a Model 7D Grass Polygraph for recording isometric force responses. […] The preparations were equilibrated for one hour before approximately one gram of passive tension was placed on the rings. Angiotensin II concentration-response curves were then recorded (3×10^−10 to 1×10^−5 M). Each concentration of AII was allowed to elicit its maximal contraction, and then AII was washed out repeatedly for 30 minutes before rechallenging with a higher concentration of AII. Aorta rings were exposed to the test antagonist at 10^−5 M for 5 minutes before challenging with AII. Adjacent segments of the same aorta ring were used for all concentration-response curves in the presence or absence of the test antagonist. The effectiveness of the test compound was expressed in terms of pA2 values and were calculated according to H. O. Schild [Br. J. Pharmacol. Chemother., 2, 189-206 (1947)]. The pA2 value is […] which increases the EC50 value for AII by a factor of two. Each test antagonist was evaluated in aorta rings from two rabbits.
2Assay B: In vitro Vascular Smooth Muscle Response
Turning to `CCCCc1cn(-c2ccccc2C(C)C)c(=O)n1Cc1ccc(-c2ccccc2-c2nnn[nH]2)cc1` [Compound 272], the “Assay B pA2 (NC = Non-Competitive antagonist)” value is “NC”.
The same measure, in the same setting: then `CCCCc1cn([C@H]2[C@H](C)CCC[C@@H]2C)c(=O)n1Cc1ccc(-c2ccccc2-c2nnn[nH]2)nc1` [Compound 236], with “NC”.

Still in this assay, the particulars now being: two determinations given as a/b.
As for `CCCCc1cn(CCc2cccs2)c(=O)n1Cc1ccc(-c2ccccc2-c2nnn[nH]2)cc1` [Compound 134], the Kb – broadly, the equilibrium dissociation constant of an antagonist, usually derived from a functional assay – is 0.501 nM.
Molecule `CCCCc1nc2c(OCC)nnc(OCC)c2n1Cc1ccc(-c2ccccc2-c2nnn[nH]2)cc1` [Compound 112] gave a Kb of 6310 nM.
Turning to `CCCCc1nc(Cl)c(CO)n1Cc1ccc(-n2cccc2C(=O)O)cc1` [Compound 148], the Kb is 1580 nM.
Molecule `CCCCc1nc2c(Cl)nnc(Cl)c2n1Cc1ccc(-c2ccccc2-c2nnn[nH]2)cc1` [Compound 110] showed a Kb of 398 nM.
The same measure, in the same setting: then `CCCCc1nn(CCC2CCCCC2)c(=O)n1Cc1ccc(-c2ccccc2-c2nn[nH]n2)cc1` [Compound 89], with 12.6 nM; and `CCCCc1nc(Cc2ccc(-c3ccccc3-c3nnn[nH]3)cc2)nn1CCCC` [Compound 129], with 5010 nM.
On the same count and under the same terms, with `CCCCc1nn(Cc2ccc3ccccc3c2)c(=O)n1Cc1ccc(-c2ccccc2-c2nn[nH]n2)cc1` [Compound 99] the figure was 316 nM; with `CCCCc1nc2c(O)nncc2n1Cc1ccc(-c2ccccc2-c2nnn[nH]2)cc1` [Compound 116], 316 nM.
On the same count and under the same terms, then `CCCCc1nn(CCC(C)CC(C)(C)C)c(=O)n1Cc1ccc(-c2ccccc2-c2nn[nH]n2)cc1` (stereo not shown) [Compound 92], with 12.6 nM; and `CCCCc1nn(C(C)(C)C(=O)c2ccccc2)c(=O)n1Cc1ccc(-c2ccccc2-c2nn[nH]n2)cc1` [Compound 102], with 20 nM.
With `CCCCc1nc2c(CCC)nnc(O)c2n1Cc1ccc(-c2ccccc2-c2nnn[nH]2)cc1` [Compound 113], the Kb was 3.98 nM.
The same measure, in the same setting: with `CCCCc1cn(CCc2ccccc2)c(=O)n1Cc1ccc(-c2ccccc2-c2nnn[nH]2)cc1` [Compound 133] the figure was 2 nM; with `CCCCc1nn(C(=O)CCC)c(=O)n1Cc1ccc(-c2ccccc2-c2nn[nH]n2)cc1` [Compound 95], 6.31 nM.
Still for that read-out and setting: then `CCCCc1nc(C)n(Cc2ccc(-c3ccccc3C(=O)O)cc2)n1` [Compound 77], with 1700 nM; and `CCCCc1nn(CC(OCc2ccccc2)c2ccccc2)c(=O)n1Cc1ccc(-c2ccccc2-c2nn[nH]n2)cc1` (stereo not shown) [Compound 97], with 20 nM.
As for `CCCCc1cn(-c2c(C)cccc2C)c(=O)n1Cc1ccc(-c2ccccc2-c2nnn[nH]2)cc1` [Compound 275], the Kb was 0.851 nM.
`CCCCCCn1nc(CCCC)n(Cc2ccc(-c3ccccc3-c3nn[nH]n3)cc2)c1=O` [Compound 85] had an antagonist dissociation constant (Kb) of 1.26 nM.
The same measure, in the same setting: with `CCCCc1nn(CC(O)c2cc(OC)ccc2OC)c(=O)n1Cc1ccc(-c2ccccc2-c2nn[nH]n2)cc1` (stereo not shown) [Compound 98] the figure was 7.94 nM; with `CCCCc1c(C)n(CCCC)c(=O)n1Cc1ccc(-c2ccccc2-c2nnn[nH]2)cc1` [Compound 137], 5.01 nM.
In the case of `CCCCc1nc2c(O)nnc(O)c2n1Cc1ccc(-c2ccccc2C(=O)O)cc1` [Compound 109], the Kb is 50.1 nM.
Still for that read-out and setting: with `CCCCc1cn(-c2ccccc2Cl)c(=O)n1Cc1ccc(-c2ccccc2-c2nnn[nH]2)cc1` [Compound 135] the figure was 3.16 nM; with `CCCCc1ncn(Cc2ccc(-c3ccccc3-c3nnn[nH]3)cc2)n1` [Compound 54], 955 nM; with `CCCCc1cn(-c2c(C(C)C)cccc2C(C)C)c(=O)n1Cc1ccc(-c2ccccc2-c2nnn[nH]2)cc1` [Compound 277], 288 nM.
With `CCCCn1nc(C(C#N)CCC)n(Cc2ccc(-c3ccccc3-c3nn[nH]n3)cc2)c1=O` (stereo not shown) [Compound 106], the Kb was 20 nM.
On the same count and under the same terms, with `CCCCc1nc2cnncc2n1Cc1ccc(-c2ccccc2C(=O)O)cc1` [Compound 108] the figure was 5010 nM.
Same read-out and setting: then `CCCCCn1nc(CCCC)n(Cc2ccc(-c3ccccc3-c3nn[nH]n3)cc2)c1=O` [Compound 90], with 1 nM.
